Where two headings read alike, the source gives them in different places.
Experiments:
Experiment in all cases: HotSpot kinase profiling
Assay type in all cases: biochemical
[1] = molecular target: T1, CAMKK1 (Homo sapiens, UniProt Q8N5S9)
T1 construct: purchased Reaction Biology Corp
Summary of the method: (§1)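 Activity is measured by radiolabel transfer captured on P81 filters after a 2 h room-temperature reaction of kinase, substrate and cofactors. Values are percent inhibition against DMSO.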

[2] = molecular target: T2, CTK/MATK (Homo sapiens, UniProt P42679)
T2 construct: purchased Reaction Biology Corp
T2 sequence (P42679 1-507): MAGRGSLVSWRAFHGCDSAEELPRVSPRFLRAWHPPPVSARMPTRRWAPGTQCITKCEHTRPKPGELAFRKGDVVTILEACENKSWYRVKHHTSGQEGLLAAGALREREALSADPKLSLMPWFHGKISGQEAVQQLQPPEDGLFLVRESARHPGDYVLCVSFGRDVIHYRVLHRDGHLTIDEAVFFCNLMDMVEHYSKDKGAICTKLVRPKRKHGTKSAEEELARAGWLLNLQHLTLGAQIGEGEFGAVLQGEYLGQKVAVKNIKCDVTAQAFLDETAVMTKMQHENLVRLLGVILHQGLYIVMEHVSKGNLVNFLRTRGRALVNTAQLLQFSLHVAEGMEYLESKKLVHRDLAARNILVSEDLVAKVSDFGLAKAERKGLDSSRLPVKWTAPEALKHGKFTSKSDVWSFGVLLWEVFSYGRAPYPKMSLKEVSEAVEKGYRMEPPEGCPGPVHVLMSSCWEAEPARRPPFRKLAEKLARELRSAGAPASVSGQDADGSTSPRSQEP
Summary of the method: as §1

[3] = molecular target: T3, FGFR4 (Homo sapiens, UniProt P22455)
T3 construct: purchased Reaction Biology Corp
Summary of the method: as §1

[4] = molecular target: T4, MST4 (Homo sapiens, UniProt Q9P289)
T4 construct: purchased Reaction Biology Corp
Summary of the method: as §1

[5] = molecular target: T5, PKCmu/PRKD1 (Homo sapiens, UniProt Q15139)
T5 construct: purchased Reaction Biology Corp
T5 sequence (Q15139 1-912): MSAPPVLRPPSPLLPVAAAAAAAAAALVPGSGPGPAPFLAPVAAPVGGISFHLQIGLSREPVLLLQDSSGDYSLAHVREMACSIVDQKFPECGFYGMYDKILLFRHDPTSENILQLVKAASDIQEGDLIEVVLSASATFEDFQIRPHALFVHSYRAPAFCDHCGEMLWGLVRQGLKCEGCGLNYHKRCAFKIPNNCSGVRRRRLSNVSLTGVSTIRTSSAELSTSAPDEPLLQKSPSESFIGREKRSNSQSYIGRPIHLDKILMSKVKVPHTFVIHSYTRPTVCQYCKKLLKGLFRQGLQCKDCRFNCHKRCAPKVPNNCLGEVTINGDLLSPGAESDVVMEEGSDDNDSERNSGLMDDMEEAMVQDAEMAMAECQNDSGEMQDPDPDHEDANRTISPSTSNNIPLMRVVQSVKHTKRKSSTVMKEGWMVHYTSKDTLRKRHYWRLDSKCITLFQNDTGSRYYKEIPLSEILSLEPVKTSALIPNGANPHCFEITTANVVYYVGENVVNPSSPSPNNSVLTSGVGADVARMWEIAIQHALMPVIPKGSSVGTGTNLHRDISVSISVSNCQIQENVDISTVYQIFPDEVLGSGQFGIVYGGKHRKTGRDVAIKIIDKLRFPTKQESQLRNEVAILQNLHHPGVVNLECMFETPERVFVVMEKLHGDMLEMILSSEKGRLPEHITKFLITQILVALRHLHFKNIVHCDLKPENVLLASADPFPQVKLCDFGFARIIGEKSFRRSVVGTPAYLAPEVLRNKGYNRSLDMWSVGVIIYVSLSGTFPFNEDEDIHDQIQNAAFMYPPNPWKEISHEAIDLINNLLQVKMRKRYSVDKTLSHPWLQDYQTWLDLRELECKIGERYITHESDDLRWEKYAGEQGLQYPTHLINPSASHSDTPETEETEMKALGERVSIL
Summary of the method: as §1

[6] = molecular target: T6, PKN1/PRK1 (Homo sapiens, UniProt Q16512)
T6 construct: purchased Reaction Biology Corp
Summary of the method: as §1

[7] = molecular target: T7, SRPK2 (Homo sapiens, UniProt P78362)
T7 construct: purchased Reaction Biology Corp
Summary of the method: as §1

[8] = molecular target: T8, SSTK/TSSK6 (Homo sapiens, UniProt Q9BXA6)
T8 construct: purchased Reaction Biology Corp
Summary of the method: as §1

[9] = read-out: % Enzyme Activity (relative to DMSO controls) Run 1
[10] = read-out: % Enzyme Activity (relative to DMSO controls) Run 2

T4 sequence (Q9P289 whole entry): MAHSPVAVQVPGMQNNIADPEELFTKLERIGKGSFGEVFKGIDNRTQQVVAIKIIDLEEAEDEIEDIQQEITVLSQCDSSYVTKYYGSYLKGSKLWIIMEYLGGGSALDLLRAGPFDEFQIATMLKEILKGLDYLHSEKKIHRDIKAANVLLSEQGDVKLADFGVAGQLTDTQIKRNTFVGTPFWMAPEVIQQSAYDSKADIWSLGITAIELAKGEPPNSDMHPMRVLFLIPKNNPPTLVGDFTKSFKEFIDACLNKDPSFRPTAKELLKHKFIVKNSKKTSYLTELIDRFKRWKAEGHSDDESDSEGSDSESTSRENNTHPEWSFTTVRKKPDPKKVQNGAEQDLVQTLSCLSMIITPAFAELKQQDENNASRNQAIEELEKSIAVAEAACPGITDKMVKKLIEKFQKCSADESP
T8 sequence (Q9BXA6 whole entry): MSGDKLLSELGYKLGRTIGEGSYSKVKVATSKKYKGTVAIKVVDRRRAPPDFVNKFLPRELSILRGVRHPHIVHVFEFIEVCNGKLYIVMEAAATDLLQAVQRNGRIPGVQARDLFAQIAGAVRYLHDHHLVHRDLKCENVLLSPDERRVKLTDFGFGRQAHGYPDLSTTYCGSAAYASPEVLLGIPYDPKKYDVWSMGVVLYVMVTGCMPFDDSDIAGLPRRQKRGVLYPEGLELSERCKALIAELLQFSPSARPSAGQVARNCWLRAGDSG
T1 sequence (Q8N5S9 whole entry): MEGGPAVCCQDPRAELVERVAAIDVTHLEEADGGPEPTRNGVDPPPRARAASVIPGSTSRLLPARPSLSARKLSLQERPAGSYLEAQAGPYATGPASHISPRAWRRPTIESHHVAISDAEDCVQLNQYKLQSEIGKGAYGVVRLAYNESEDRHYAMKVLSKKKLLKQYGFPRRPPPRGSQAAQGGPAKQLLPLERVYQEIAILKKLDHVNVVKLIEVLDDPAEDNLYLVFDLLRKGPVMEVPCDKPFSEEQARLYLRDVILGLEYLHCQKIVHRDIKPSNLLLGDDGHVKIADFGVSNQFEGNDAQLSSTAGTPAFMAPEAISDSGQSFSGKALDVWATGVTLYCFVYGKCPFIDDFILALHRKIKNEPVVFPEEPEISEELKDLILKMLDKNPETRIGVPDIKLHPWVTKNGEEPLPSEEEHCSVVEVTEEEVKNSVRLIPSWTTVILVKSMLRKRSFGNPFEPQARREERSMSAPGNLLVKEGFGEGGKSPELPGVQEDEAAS
T3 sequence (P22455 22-802): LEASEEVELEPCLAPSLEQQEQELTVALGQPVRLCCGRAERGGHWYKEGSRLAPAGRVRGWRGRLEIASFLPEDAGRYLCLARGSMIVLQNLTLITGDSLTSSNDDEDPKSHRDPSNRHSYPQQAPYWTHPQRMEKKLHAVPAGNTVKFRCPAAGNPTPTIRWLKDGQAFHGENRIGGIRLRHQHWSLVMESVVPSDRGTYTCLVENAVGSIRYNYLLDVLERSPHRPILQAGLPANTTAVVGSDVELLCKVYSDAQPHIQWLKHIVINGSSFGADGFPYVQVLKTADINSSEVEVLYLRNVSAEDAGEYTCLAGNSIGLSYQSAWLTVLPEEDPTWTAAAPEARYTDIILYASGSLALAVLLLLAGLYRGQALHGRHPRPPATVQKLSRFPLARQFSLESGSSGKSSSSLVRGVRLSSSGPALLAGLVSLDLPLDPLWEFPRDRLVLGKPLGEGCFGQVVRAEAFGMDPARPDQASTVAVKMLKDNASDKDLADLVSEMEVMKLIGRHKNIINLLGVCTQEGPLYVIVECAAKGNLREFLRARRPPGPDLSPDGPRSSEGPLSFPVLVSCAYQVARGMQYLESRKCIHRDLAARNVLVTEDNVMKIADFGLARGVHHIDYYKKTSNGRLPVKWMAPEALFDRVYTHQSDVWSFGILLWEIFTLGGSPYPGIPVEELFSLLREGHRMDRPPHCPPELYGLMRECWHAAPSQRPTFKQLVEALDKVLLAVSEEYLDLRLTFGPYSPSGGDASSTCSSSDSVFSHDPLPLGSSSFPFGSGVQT
T7 sequence (P78362 whole entry): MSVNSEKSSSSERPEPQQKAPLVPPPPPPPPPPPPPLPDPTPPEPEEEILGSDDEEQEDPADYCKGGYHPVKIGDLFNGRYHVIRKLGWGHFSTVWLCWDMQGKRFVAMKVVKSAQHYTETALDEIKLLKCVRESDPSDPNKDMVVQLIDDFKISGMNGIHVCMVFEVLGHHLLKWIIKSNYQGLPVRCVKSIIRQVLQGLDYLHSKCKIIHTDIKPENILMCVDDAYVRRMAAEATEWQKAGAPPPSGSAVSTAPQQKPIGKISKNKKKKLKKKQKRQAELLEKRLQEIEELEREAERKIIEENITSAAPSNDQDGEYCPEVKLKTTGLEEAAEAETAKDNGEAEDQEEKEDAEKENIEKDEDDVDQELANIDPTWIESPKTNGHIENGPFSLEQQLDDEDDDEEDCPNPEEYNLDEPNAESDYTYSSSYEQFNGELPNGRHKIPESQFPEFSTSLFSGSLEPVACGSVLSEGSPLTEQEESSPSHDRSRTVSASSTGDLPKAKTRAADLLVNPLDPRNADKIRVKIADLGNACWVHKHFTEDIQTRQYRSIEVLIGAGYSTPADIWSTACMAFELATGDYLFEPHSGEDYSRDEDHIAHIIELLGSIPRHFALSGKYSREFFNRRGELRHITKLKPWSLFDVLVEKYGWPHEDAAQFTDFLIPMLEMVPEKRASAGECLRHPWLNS
T6 sequence (Q16512 whole entry): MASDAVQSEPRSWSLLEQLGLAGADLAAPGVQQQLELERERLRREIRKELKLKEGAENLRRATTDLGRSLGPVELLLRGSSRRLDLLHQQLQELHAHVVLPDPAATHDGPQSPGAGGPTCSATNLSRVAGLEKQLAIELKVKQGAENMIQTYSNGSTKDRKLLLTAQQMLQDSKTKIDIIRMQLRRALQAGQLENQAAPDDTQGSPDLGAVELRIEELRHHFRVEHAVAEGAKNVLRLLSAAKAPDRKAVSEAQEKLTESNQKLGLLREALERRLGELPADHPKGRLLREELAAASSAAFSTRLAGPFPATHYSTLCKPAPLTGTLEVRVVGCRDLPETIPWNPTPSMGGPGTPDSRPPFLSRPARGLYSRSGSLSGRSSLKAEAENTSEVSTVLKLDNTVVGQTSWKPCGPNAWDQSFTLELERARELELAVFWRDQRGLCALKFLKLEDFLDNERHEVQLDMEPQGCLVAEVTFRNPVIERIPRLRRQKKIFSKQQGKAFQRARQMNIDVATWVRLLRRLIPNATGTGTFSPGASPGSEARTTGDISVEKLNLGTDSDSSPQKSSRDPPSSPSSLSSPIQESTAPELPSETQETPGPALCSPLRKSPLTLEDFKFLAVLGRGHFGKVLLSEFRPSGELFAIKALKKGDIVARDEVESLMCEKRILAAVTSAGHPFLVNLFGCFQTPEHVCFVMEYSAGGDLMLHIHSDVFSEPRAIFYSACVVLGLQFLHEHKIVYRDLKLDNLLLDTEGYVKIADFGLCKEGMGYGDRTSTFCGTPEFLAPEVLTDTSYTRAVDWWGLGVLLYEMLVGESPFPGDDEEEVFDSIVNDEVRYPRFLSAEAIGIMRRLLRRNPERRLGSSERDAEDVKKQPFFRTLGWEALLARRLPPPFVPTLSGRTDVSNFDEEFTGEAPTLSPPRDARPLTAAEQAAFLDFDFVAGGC

C=CC(=O)Nc1cccc(Nc2nc(Nc3ccc(OCCOC)c(F)c3)ncc2F)c1 [Compound 2]
inhibition at 3 µM [1]: 9.31% | remaining activity at 3 µM [1, 9]: 93.5% | remaining activity at 3 µM [1, 10]: 87.9% | inhibition at 3 µM [2]: -3.03% | remaining activity at 3 µM [2, 9]: 102% | remaining activity at 3 µM [2, 10]: 104% | inhibition at 3 µM [3]: 35.1% | remaining activity at 3 µM [3, 9]: 66.3% | remaining activity at 3 µM [3, 10]: 63.4% | inhibition at 3 µM [4]: -1.09% | remaining activity at 3 µM [4, 9]: 97.8% | remaining activity at 3 µM [4, 10]: 104% | inhibition at 3 µM [5]: 24.6% | remaining activity at 3 µM [5, 9]: 74.8% | remaining activity at 3 µM [5, 10]: 75.8% | inhibition at 3 µM [6]: 6.94% | remaining activity at 3 µM [6, 9]: 93.8% | remaining activity at 3 µM [6, 10]: 92.3% | inhibition at 3 µM [7]: 9.73% | remaining activity at 3 µM [7, 9]: 90.9% | remaining activity at 3 µM [7, 10]: 89.6% | inhibition at 3 µM [8]: -3.6% | remaining activity at 3 µM [8, 9]: 107% | remaining activity at 3 µM [8, 10]: 99.8%

Source: patent US9492471B2, “Methods of treating a disease or disorder associated with Bruton'S Tyrosine Kinase” (Celgene Avilomics Research, Inc., priority 2013, dated 2016)
